Reference: patent publication US20120028970A1, “HETEROARYLTHIOMETHYL PYRIDINE DERIVATIVE” (MSD K.K., priority 2009, published 2012)

Key:
human NPY Y1 receptor = molecular target: T1, human NPY Y1 receptor (Homo sapiens, UniProt P25929); assay: NPY binding inhibition test ([125I] peptide YY binding to membranes of NPY Y1 receptor expressing CHO-K1 cells); details: membrane of CHO-K1 cells expressing human NPY Y1 receptor, 25° C., 2 hours; read-out: IC50 against specific [125I] peptide YY binding
T1 construct: expressed in transfected cells; host or cells: CHO-K1 NFAT β-Lactamase (Aurora)
T1 sequence (P25929 1-384): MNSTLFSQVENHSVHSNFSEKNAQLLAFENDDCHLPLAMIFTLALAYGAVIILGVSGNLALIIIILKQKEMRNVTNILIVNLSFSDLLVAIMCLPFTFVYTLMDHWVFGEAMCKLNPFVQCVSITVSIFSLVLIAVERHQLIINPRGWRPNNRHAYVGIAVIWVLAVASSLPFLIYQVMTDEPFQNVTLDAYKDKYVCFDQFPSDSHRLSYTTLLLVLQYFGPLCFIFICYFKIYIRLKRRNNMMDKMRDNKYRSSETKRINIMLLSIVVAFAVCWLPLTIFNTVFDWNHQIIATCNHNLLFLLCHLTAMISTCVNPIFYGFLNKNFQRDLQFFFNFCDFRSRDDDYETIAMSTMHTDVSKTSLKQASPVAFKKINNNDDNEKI
From the text: A cDNA sequence encoding a human NPY Y1 receptor (Accession No. L07615) was cloned into expression vectors pEF1x (made by Invitrogen Inc.).

human P-glycoprotein = molecular target: T2, human P-glycoprotein (Homo sapiens, UniProt P08183); assay: Assay on P-glycoprotein substrate specificity (transcellular transport, LLC-PK1 cells expressing human P-glycoprotein); type: in vitro ADME; details: for efflux ratio at 3 h, 1 μM: pH 7.4, 1 μM test compound, human P-gp expressing LLC-PK1 cells, read-out: BA/AB (ratio of permeability coefficients Papp B to A / A to B)
T2 construct: host or cells: porcine kidney-derived LLC-PK1 cells
T2 sequence (P08183 whole entry): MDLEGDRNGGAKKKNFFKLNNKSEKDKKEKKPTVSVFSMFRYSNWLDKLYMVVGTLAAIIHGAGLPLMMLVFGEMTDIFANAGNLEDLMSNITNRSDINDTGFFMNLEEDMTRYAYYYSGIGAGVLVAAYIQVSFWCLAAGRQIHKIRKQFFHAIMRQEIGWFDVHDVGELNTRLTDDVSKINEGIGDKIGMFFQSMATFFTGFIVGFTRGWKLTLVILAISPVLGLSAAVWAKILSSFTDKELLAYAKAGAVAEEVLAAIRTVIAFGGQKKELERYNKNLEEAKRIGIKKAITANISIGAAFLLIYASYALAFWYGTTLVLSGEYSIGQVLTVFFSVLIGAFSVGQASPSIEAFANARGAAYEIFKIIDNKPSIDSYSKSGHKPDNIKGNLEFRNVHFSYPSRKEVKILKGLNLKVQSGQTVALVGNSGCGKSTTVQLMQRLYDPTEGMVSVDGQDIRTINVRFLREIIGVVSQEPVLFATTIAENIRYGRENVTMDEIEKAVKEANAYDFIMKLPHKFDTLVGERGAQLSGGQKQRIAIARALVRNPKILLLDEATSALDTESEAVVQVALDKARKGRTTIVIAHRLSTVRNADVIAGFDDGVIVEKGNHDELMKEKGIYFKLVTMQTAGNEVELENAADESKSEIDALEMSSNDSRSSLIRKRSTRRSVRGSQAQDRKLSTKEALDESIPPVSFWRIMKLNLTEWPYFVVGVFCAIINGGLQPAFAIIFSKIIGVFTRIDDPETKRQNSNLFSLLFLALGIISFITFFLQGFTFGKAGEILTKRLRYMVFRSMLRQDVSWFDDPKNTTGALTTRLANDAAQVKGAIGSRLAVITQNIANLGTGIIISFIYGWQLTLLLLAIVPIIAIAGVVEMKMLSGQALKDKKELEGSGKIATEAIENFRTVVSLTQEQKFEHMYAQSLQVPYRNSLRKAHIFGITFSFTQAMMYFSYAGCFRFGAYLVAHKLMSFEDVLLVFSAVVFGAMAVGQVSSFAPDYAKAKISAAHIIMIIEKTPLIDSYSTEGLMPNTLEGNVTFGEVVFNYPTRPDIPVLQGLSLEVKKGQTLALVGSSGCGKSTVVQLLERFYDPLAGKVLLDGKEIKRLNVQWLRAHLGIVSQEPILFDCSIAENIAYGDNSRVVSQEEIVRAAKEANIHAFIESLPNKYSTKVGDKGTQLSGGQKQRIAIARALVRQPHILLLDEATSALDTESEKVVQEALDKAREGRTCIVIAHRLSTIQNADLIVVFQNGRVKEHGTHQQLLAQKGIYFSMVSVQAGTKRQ
Experimental: P-glycoprotein (P-gp) substrate specificities were assessed in a transcellular transport assay system using cells expressing human P-glycoprotein. The human P-glycoprotein expression cells employing porcine kidney-derived LLC-PK1 cells as host cells were obtained from Dr. Alfred Schinkel in the Netherlands Cancer Institute [see Journal of Clinical Investigation, vol. 96, p. […] The cells were seeded on a filter membrane of 24-well HTS multiwell insert system (manufactured by Beckton Dickinson) to have a concentration of 0.15 million cells/well. The cells were cultured for about 1 week to form a single layer film by the cells. The multiwell insert system is divided into two compartments (the apical membrane side compartment and the basolateral membrane side compartment). Prior to the transport experiment, cell culture media on both sides (apical and basolateral sides) were replaced by Hank's balanced salt solution (HBSS) containing an assay buffer solution (10 mM Hepes (pH 7.4)). After about 1 hour, the basolateral and apical solutions were replaced by an assay buffer solution (0.5 mL) and a 1 μM test compound-containing assay buffer solution (0.5 mL), respectively, and the transport experiment was started for transportation from Apical to Basolateral (from A to B). After 3 hours, each 50 μL was collected as a measuring sample from both of the apical and basolateral sides. The reverse operation thereof was carried out for transportation from Basolateral to Apical (from B to A). […] After termination of the transport experiment, an equal amount of acetonitrile containing the internal standard was added to each measuring sample. The measuring samples were measured using LC-MS/MS to calculate the concentrations of the test compounds by a relative calibration curve method. The permeability coefficients of the test compounds transported in each of from A to B and from B to A were calculated (Papp: Expression 1). The ratios of the permeability coefficients between A to B and B to A were also determined (BA/AB: Expression 2). BA/AB was considered to be an index of P-glycoprotein (p-gp) substrate specificity [see Drug Metabolism and Disposition, vol. 31, p.
Papp=(0.5 mL×CR)/((CD+CR)×3 hr×Area) Expression 1
BA/AB=Papp(B to A)/Paap(A to B) Expression 2
Area: surface area of filter; CD: concentration of test compound in donor side after 3 hours; CR: concentration of test compound in receiver side after 3 hours

IC50 (human NPY Y1 receptor)	efflux ratio at 3 h, 1 μM (human P-glycoprotein)	SMILES	human P-glycoprotein substrate specificity (in words) (human P-glycoprotein)
0.33 nM	5	C=CCOC(=O)Nc1cccc(CNc2cc(C3CCOCC3)cc(CSc3nnc(CC)s3)n2)c1 [Compound (A), reference compound]	
0.27 nM		CCCCNc1cc(N2CCC(F)(F)CC2)cc(CSc2nn(C)c(CC)c2C)n1 [Example 7, N-butyl-4-(4,4-difluoropiperidin-1-yl)-6-{[(5-ethyl-1,4-dimethyl-1H-pyrazol-3-yl)sulfanyl]methyl}pyridin-2-amine]	
0.27 nM	1.9	Cc1nc(SCc2cc(N3CCSCC3)cc(NCc3cccc(F)n3)n2)oc1C [Example 1, 6-{[(4,5-dimethyl-1,3-oxazol-2-yl)sulfanyl]methyl}-N-[(6-fluoropyridin-2-yl)methyl]-4-(thiomorpholin-4-yl)pyridin-2-amine]	notably low human P-glycoprotein substrate specificity
0.17 nM		Cc1cccc(CNc2cc(N3CCSCC3)cc(CSc3nc(C)c(C)s3)n2)n1 [Example 2, 6-{[(4,5-dimethyl-1,3-thiazol-2-yl)sulfanyl]methyl}-N-[(6-methylpyridin-2-yl)methyl]-4-(thiomorpholin-4-yl)pyridin-2-amine]	
0.19 nM		Cc1cccc(CNc2cc(N3CCOCC3)cc(CSc3nc(CF)c(C4CC4)s3)n2)n1 [Example 11, 6-({[5-cyclopropyl-4-(fluoromethyl)-1,3-thiazol-2-yl]sulfanyl}methyl)-N-[(6-methylpyridin-2-yl)methyl]-4-(morpholin-4-yl)pyridin-2-amine]	
0.26 nM		CCc1sc(SCc2cc(N3CCC(F)CC3)cc(NCc3cccc(C)n3)n2)nc1C [Example 3, 6-{[(5-ethyl-4-methyl-1,3-thiazol-2-yl)sulfanyl]methyl}-4-(4-fluoropiperidin-1-yl)-N-[(6-methylpyridin-2-yl)methyl]pyridin-2-amine]	

More lines, now with the values behind:

SMILES	IC50 (human NPY Y1 receptor)	efflux ratio at 3 h, 1 μM (human P-glycoprotein)	human P-glycoprotein substrate specificity (in words) (human P-glycoprotein)
Cc1cccc(CNc2cc(N3C4CCC3CC(F)(F)C4)cc(CSc3cc(C)n(C)n3)n2)n1 [Example 5, 4-(3,3-difluoro-8-azabicyclo[3,2,1]octo-8-yl)-6-{[(1,5-dimethyl-1H-pyrazol-3-yl)sulfanyl]methyl}-N-[(6-methylpyridin-2-yl)methyl]pyridin-2-amine]	0.24 nM		
CCc1c(C)c(SCc2cc(N3CCC(F)(F)CC3)cc(NCCOC)n2)nn1C [Example 8, 4-(4,4-difluoropiperidin-1-yl)-6-{[(5-ethyl-1,4-dimethyl-1H-pyrazol-3-yl)sulfanyl]methyl}-N-(2-methoxyethyl)pyridin-2-amine]	0.27 nM		
C=CCNc1cc(N2CCC(F)(F)CC2)cc(CSc2cc(CC)n(C)n2)n1 [Example 6, 4-(4,4-difluoropiperidin-1-yl)-6-{[(5-ethyl-1-methyl-1H-pyrazol-3-yl)sulfanyl]methyl}-N-(prop-2-en-1-yl)pyridin-2-amine]	0.28 nM		
C=CCNc1cc(N2[C@@H]3CC[C@H]2C[C@H](F)C3)cc(CSc2nc(C)c(CC)s2)n1 [Example 4, 6-{[(5-ethyl-4-methyl-1,3-thiazol-2-yl)sulfanyl]methyl}-4-[(3-exo)-3-fluoro-8-azabicyclo[3,2,1]octo-8-yl]-N-(prop-2-en-1-yl)pyridin-2-amine]	0.27 nM		
CCc1sc(SCc2cc(N3CCOCC3)cc(NCc3cccc(C)n3)n2)nc1CF [Example 10, 6-({[5-ethyl-4-(fluoromethyl)-1,3-thiazol-2-yl]sulfanyl}methyl)-N-[(6-methylpyridin-2-yl)methyl]-4-(morpholin-4-yl)pyridin-2-amine]	0.13 nM		
Cc1cccc(CNc2cc(N3CCOCC3)cc(CSc3nc(CF)c(C)s3)n2)n1 [Example 9, 6-({[4-(fluoromethyl)-5-methyl-1,3-thiazol-2-yl]sulfanyl}methyl)-N-[(6-methylpyridin-2-yl)methyl]-4-(morpholin-4-yl)pyridin-2-amine]	0.2 nM	1.8	notably low human P-glycoprotein substrate specificity
